From patent US20040029860A1, “Anti-proliferative drugs” (priority 2000, published 2004)
Read-outs that look alike come from different tables or passages of the source.

Key:
[1] = system: human neuroblastoma (SK-N-SH); test: cell viability (neutral red, Almar Blue, Hoechst dye), neuroblastoma SK-N-SH; format: cell-based; conditions: Homo sapiens, SK-N-SH; Table 1A
[2] = system: human neuroblastoma (SH-SY5T); test: cell viability, neuroblastoma SH-SY5T; format: cell-based; conditions: for IC50: Homo sapiens
Experimental: The effect of paroxetine on primary tissue cultures was also evaluated. […] The viability of the cells after treatment with paroxetine was determined by neutral red (NR) technology 24 hr. post treatment.
(§1) Cyclic antidepressants at varying concentrations (between 10PM and 100 μM) was applied to neuroblastoma SH-SY5T, 3LL lung carcinoma, prostate (LN-CapAp), melanoma B16, and cell viability was determined as described above.

rat glioblastoma (C6) = test: cell viability, glioma C6; format: cell-based; conditions: Rattus norvegicus; Table 1A
mouse melanoma (B-16) = test: cell viability, melanoma B16; format: cell-based; conditions: Mus musculus
Experimental: as §1

[3] = system: human prostate (LN-CapAp); test: cell viability, prostate LN-Cap; format: cell-based; conditions: Homo sapiens, LNCaP
Experimental: The effect of trifluoperazine and flupentixol was studied in two cell-lines of human prostate cancer: androgen dependent (LN-Cap) and androgen independent (PC-3).
as §1

human breast (MCF7) = test: cell viability, breast MCF7; format: cell-based; conditions: Table 1A
Colon Ht-29 = test: cell viability, colon Ht-29; format: cell-based; conditions: Homo sapiens, Table 1A
[4] = system: mouse-selected embryo, neuronal culture; test: primary tissue culture, neuronal; format: cell-based; conditions: data not shown
[5] = system: rat new born myocytic culture; test: primary tissue culture, myocytic; format: cell-based; conditions: data not shown
[6] = system: Neuroblastoma cell line (SK-NSH); test: apoptosis by flow cytometry of propidium iodide stained cells; format: cell-based, human; conditions: after 24 and 48 hours at 20 μM and higher; FIG. 7
Experimental: The percentage of apoptosis of the cells was determined by flow cytometry of propidium iodide stained cells using a fluorescence-activated cell sorter (FACScan) (Becton and Dickenson, Heidelberg, Calif.) equipped with an argon ion laser (an excitation wavelength, […]) and a doublet discrimination module (DDM). Lysis II (BD) software was used for data acquisition.

p53 mutant = p53 mutant expression, western blotting in glioma C6; format: cell-based, rat; conditions: 60 μM, FIG. 8
HaCat keratinocytes = test: keratinocyte viability, Neutral red, HaCat; format: cell-based, human; conditions: for IC50: Homo sapiens, HaCaT
Experimental: (§2) The drugs were administered at concentrations within the range of 5-100 μM and cell viability was measured 24 hr post-administration by Neutral red staining. The efficiency of the agents against viability of the cell lines was evaluated also by comparison with two commonly used anticancer agents (Doxorubicin and 5-fluorouracil (5-FU)) at equimolar concentrations.

HaCat I5 keratinocytes = test: keratinocyte viability, Neutral red, HaCat I5; format: cell-based, human
Experimental: as §2

different cell-lines = test: mean IC50 over cell lines and therapeutic index
mouse lung sarcoma (3LL) = test: cell viability, lung 3LL; format: cell-based; conditions: Mus musculus; Table 1B; read-out: Cell viability IC50 Lungs Sarcoma 3LL
Experimental: In another experiment the effect of clotiapine at the same concentrations on the viability of mouse lung carcinoma (3LL) cells was determined.
as §1

[7] = system: mouse melanoma B16 MDR cells; test: cell viability, melanoma B16 MDR; format: cell-based
[8] = system: mouse Lewis lung carcinoma (3LL); test: in vivo effect on Lewis lung carcinoma (3LL) in mice; conditions: 3LL inoculated C57 mice, i.p. daily, thioridazine 15 mg/kg, others 30 mg/kg
Experimental: Female C57 black mice aged 4 weeks were used in order to evaluate the in vivo effect of cyclic psychotropic agents on tumor cells. In particular, animals were divided into 5 groups (6-8 mice each). Animals were inoculated with mouse Lewis lung carcinoma (3LL, 0.5 million each) by i.v. injection to the tail vein and then treated by i.p. injection daily for 3 weeks with the following different agents
(5) Paroxetine (30 mg/kg).
During the treatment period animals were inspected daily and their body weight registered twice a week. […] After the four weeks of treatment the mice were sacrificed and their lungs dissected and weighted.

B16 melanoma cells = test: sensitization to doxorubicin, B16 melanoma cells; format: cell-based, mouse; conditions: B16 melanoma cells, FIG. 6D
[9] = system: HaCat II-4RT keratinocytes; test: keratinocyte viability, Neutral red, HaCat II4; format: cell-based; conditions: Homo sapiens
Experimental: as §2

[10] = Homo sapiens, HaCaT, mean of the determinations, read-out: IC50 HaCat I5 ME
[11] = Homo sapiens, HaCaT, single determinations, read-out: IC50 HaCat I5

Question: How did the IC50 [1] turn out when OCCN1CCN(CCCN2c3ccccc3Sc3ccc(Cl)cc32)CC1 [Perphenazine] was run?
Answer: The IC50 was 21 µM.

Question: And the IC50 ([2]; Table 1A, read-out: Viability IC50 Neuroblastoma SH-SY5T)?
Answer: Its IC50 is 15 µM.

Question: What about the IC50 (rat glioblastoma (C6)) of the same compound?
Answer: Its IC50 is 22 µM.

Question: And the IC50 (mouse melanoma (B-16); Table 1A, read-out: Viability IC50 Melanoma B16)?
Answer: Its IC50 is 23 µM.

Question: And the IC50 ([3]; Table 1A, read-out: Viability IC50 Prostate LN-Cap)?
Answer: Its IC50 is 18 µM.

Question: What about the IC50 (human breast (MCF7)) of the same compound?
Answer: The IC50 was 21 µM.

Question: What about the IC50 (Colon Ht-29) of the same compound?
Answer: The IC50 was 22 µM.

Question: And the IC50 [4]?
Answer: Its IC50 is 60 µM.

Question: And the IC50 [5]?
Answer: Its IC50 is 35 to 55 µM.

Question: And the “apoptosis (in words)” value [6]?
Answer: Its value is “mortal and dramatic apoptosis”.

Question: What about the “mean decrease in expression of p53 mutant” value (p53 mutant) of the same compound?
Answer: The value was 30%.

Question: And the IC50 (HaCat keratinocytes; mean of the determinations, read-out: IC50 HaCat ME)?
Answer: Its IC50 is 24 µM.

Question: What about the IC50 (HaCat keratinocytes; single determinations, read-out: IC50 HaCat) of the same compound?
Answer: The IC50 was 24 µM.

Question: What about the IC50 (HaCat I5 keratinocytes; [10]) of the same compound?
Answer: Its IC50 is 26 µM.

Question: What about the IC50 (HaCat I5 keratinocytes; [11]) of the same compound?
Answer: Its IC50 is 30 µM.

Question: And the IC50 (HaCat I5 keratinocytes; single determinations, read-out: IC50 HaCat I5)?
Answer: Its IC50 is 22 µM.

Question: And the IC50 (different cell-lines; read-out: IC50 Mean ± SD)?
Answer: Its IC50 is 20 ± 2.7 µM.

Question: With Fc1ccc([C@@H]2CCNC[C@H]2COc2ccc3c(c2)OCO3)cc1 [Paroxetine] as the compound, how does the “sensitivity of neuroblastoma cells compared to primary tissue (viability)” value ([2]; 10 μM to 100 μM, neutral red, 24 hr post treatment, vs primary mouse brain and selected neurons, FIG. 1) read?
Answer: Its value is “increased sensitivity”.

Question: What about the IC50 ([2]; Table 1B, read-out: Cell viability IC50 Neuroblastoma SH-SY5T) of the same compound?
Answer: Its IC50 is 15 µM.

Question: And the IC50 (mouse melanoma (B-16); Example 9, read-out: IC50 levels, wild type B16 mouse melanoma)?
Answer: Its IC50 is 15 to 20 µM.

Question: What about the IC50 (mouse melanoma (B-16); Table 1B, read-out: Cell viability IC50 Melanoma 16B) of the same compound?
Answer: The IC50 was 12 µM.

Question: And the IC50 ([3]; Table 1B, read-out: Cell viability IC50 Prostate LN-Cap)?
Answer: Its IC50 is 16 µM.

Question: What about the IC50 (mouse lung sarcoma (3LL)) of the same compound?
Answer: The IC50 was less than 10 µM.

Question: And the IC50 ([7]; B16, Example 9, FIG. 9, read-out: IC50 levels, transformed (MDR) B16 melanoma)?
Answer: Its IC50 is 15 to 20 µM.

Question: What about the IC50 ([7]; Table 1B, read-out: Cell viability IC50 Melanoma B16 MDR) of the same compound?
Answer: The IC50 was 11 µM.

Question: What about the “survival rate during four weeks of treatment” value [8] of the same compound?
Answer: Its value is 5/6.

Question: What about the “lungs weight / tumor size compared to control group” value ([8]; FIG. 5) of the same compound?
Answer: The value was “effective in reducing tumor size”.

Question: And the “potentiation of doxorubicin (in words)” value (B16 melanoma cells)?
Answer: Its value is “same effect”.

Question: And the “cell viability HaCat (in words)” value (HaCat keratinocytes; 5-100 μM, 24 hr, Neutral red, FIG. 13A, 15A)?
Answer: The value was “effective in reducing cell viability”.

Question: What about the “cell viability HaCat I5 (in words)” value (HaCat I5 keratinocytes; 5-100 μM, 24 hr, Neutral red, FIG. 13B, 15B) of the same compound?
Answer: Its value is “effective in reducing cell viability”.

Question: And the IC50 (HaCat I5 keratinocytes; [10])?
Answer: The IC50 was 21 µM.

Question: What about the IC50 (HaCat I5 keratinocytes; [11]) of the same compound?
Answer: Its IC50 is 21 µM.

Question: And the IC50 [9]?
Answer: Its IC50 is 12 µM.

Question: What about the IC50 (different cell-lines; read-out: IC50 Mean +/− SD) of the same compound?
Answer: The IC50 was 12.4 µM.
